Source: article PMC11474028, “Lipopeptide antibiotics disrupt interactions of undecaprenyl phosphate with UptA” (Proceedings of the National Academy of Sciences of the …, 2024)

Assays:
Design in all cases: species or system Bacillus subtilis
[1] = system: UptA R112A/R118A; experiment: Native MS of C55-P binding to UptA double mutant R112A/R118A; details: 5 µM protein, 10 µM C55-P, pH 8.02, 0.05% LDAO, 200 mM ammonium acetate, 100 V; mean of three biological replicates
[2] = system: UptA R112E/R118E; experiment: Native MS of C55-P binding to UptA double mutant R112E/R118E; details: 5 µM protein, 10 µM C55-P, pH 8.02, 0.05% LDAO, 200 mM ammonium acetate, 100 V; mean of three biological replicates
Text: (§1) Conserved arginine residues in the putative membrane reentrant loops of E. coli DedA proteins YqjA (R130) and YghB (R136) are important for the cellular role of these proteins ([36]). […] How these residues impact substrate interactions, however, is not known. Based on the model structure of UptA predicted by AlphaFold, the R112 residue should engage Q64 while R118 is able to form hydrogen bonds with E32, H119, and W146 to potentially stabilize the membrane reentrant loops (Fig. 3A). To test for the impact of these residues on C55-P binding, we generated the E32A, Q64A, R112A, R118A, H119A, and W146A UptA single mutants. After purification of the proteins, using the same protocol as the wild type (WT) (Materials and Methods and SI Appendix, Fig. S5), we equilibrated aliquots of each protein variant (5 µM) with C55-P (10 µM) and recorded spectra using the same instrument settings. […] We additionally generated a double mutant R112E/R118E in which the polarity of both native arginine residues in the wild type are reversed.
(§2) Expression and purification of UptA
(§3) Plasmids were used to transform chemically competent E. coli C43(DE3) cells (Lucigen) and selected on LB/Agar containing 100 μg/ml ampicillin at 37 °C. Single colonies were used to inoculate 60 mL LB containing 100 μg/ml ampicillin and were grown at 37 °C overnight for 16 h. […]

[3] = system: UptA H119A; experiment: Native MS of C55-P binding to UptA mutant H119A; details: 5 µM protein, 10 µM C55-P, pH 8.02, 0.05% LDAO, 200 mM ammonium acetate, collisional activation 100 V; three biological replicates
Text: as §1, §2, §3

## CC(C)=CCC/C(C)=C/CC/C(C)=C/CC/C(C)=C\CC/C(C)=C\CC/C(C)=C\CC/C(C)=C\CC/C(C)=C\CC/C(C)=C\CC/C(C)=C\CC/C(C)=C\COP(=O)(O)O [C55-P, undecaprenyl phosphate]
[1]
  reduction in C55-P binding, R112A/R118A: 43%
[2]
  reduction in the intensity of C55-P binding compared to wild type, R112E/R118E: 63%
[3]
  reduction in C55-P binding intensity compared to wild type, H119A (in words): modest reduction
